Data: patent US20250368634A1, “PHENYL AMIDE COMPOUNDS AND METHODS OF USE” (SCHRÖDINGER, INC., priority 2022, published 2025)
pIC50: −log10 of the molar value.

The molecules below were run against SOS1-KRas (G12C) (Homo sapiens (Human), UniProt Q07889) (assay: SOS1-KRas (G12C) FRET Assay). Details: not given.
Format: binding

SOS1-KRas (G12C), sequence (Q07889 564-1049, stated change not applied): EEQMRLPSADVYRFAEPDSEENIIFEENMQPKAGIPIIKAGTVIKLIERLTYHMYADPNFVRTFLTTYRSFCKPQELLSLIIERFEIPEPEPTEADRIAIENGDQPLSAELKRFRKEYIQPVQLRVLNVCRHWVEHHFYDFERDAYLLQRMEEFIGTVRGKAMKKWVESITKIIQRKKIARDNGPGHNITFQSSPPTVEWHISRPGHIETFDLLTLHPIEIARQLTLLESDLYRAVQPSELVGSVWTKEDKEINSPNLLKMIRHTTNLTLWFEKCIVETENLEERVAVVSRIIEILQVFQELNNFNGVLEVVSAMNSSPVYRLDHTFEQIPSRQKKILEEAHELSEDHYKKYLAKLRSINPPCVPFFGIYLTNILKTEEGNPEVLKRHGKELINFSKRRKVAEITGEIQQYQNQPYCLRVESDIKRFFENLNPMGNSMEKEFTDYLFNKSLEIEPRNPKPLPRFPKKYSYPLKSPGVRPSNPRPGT

Compared with `C[C@@H](NC(=O)c1cc(N2CCOCC2)c(F)cc1N[C@@H]1CN2CCC1CC2)c1cccc(C(F)F)c1F` [Example 16, N—((R)-1-(3-(difluoromethyl)-2-fluorophenyl)ethyl)-4-fluoro-5-morpholino-2-(((S)-quinuclidin-3-yl)amino)benzamide], `C[C@@H](NC(=O)c1cc(N2CCOCC2)c(F)cc1NC1CCN(C)CC1)c1cccc(C(F)F)c1F` [Example 1, (R)—N-(1-(3-(difluoromethyl)-2-fluorophenyl)ethyl)-4-fluoro-2-((1-methylpiperidin-4-yl)amino)-5-morpholinobenzamide] is 0.31 log units higher in pIC50: 7.38 for the first, 7.69 for the second.

Going from `C[C@@H](NC(=O)c1cc(N2CCn3nccc3C2)c(F)cc1NC1CCN(C)CC1)c1cccc(C(F)F)c1F` [Example 7, (R)—N-(1-(3-(difluoromethyl)-2-fluorophenyl)ethyl)-5-(6,7-dihydropyrazolo[1,5-a]pyrazin-5 (4H)-yl)-4-fluoro-2-((1-methylpiperidin-4-yl)amino)benzamide] to `C[C@@H](NC(=O)c1cc(N2C[C@@H]3C[C@H]2CO3)c(F)cc1NC1CCN(C)CC1)c1cccc(C(F)F)c1F` [Example 19, 5-((1S,4S)-2-oxa-5-azabicyclo[2.2.1]heptan-5-yl)-N—((R)-1-(3-(difluoromethyl)-2-fluorophenyl)ethyl)-4-fluoro-2-((1-methylpiperidin-4-yl)amino)benzamide], the pIC50 falls from 7.55 to 7.00 (0.55 log units).

Going from `C[C@@H](NC(=O)c1cc(N2CC[C@]23CCOC3)c(F)cc1NC1CCN(C)CC1)c1cccc(C(F)F)c1F` (single isomer, unassigned) [Example 35] to `C[C@@H](NC(=O)c1cc(-c2ccc(=O)n(C)c2)c(F)cc1NC1CCN(C)CC1)c1cccc(C(F)F)c1F` [Example 62, (R)-N-(1-(3-(difluoromethyl)-2-fluorophenyl)ethyl)-4-fluoro-5-(1-methyl-6-oxo-1,6-dihydropyridin-3-yl)-2-((1-methylpiperidin-4-yl)amino)benzamide], the pIC50 rises from 7.09 to 7.98 (0.89 log units). The second is the more potent here.

Compared with `Cc1c([C@@H](C)NC(=O)c2cc(-c3cnn(C)c3)c(F)cc2NC2CCN(C)CC2)cccc1C(F)(F)F` [Example 11, (R)-4-fluoro-5-(1-methyl-1H-pyrazol-4-yl)-N-(1-(2-methyl-3-(trifluoromethyl)phenyl)ethyl)-2-((1-methylpiperidin-4-yl)amino)benzamide], `C[C@@H](NC(=O)c1cc(-c2ccncc2)c(F)cc1N[C@@H]1CN2CCC1CC2)c1cccc(C(F)F)c1F` (single isomer, unassigned) [Example 59] is 0.76 log units higher in pIC50: 6.83 for the first, 7.59 for the second.

Same assay, conditions: inhibition of SOS1:KRAS interaction; 0.5 nM His10-SOS1 (res. 564-1049), 2.5 nM GST-KRAS (res. 1-169, G12C); 2 hrs at RT

Compared with `C[C@@H](NC(=O)c1cc(C2CC2)c(F)cc1NC1CCN(C)CC1)c1cccc(C(F)F)c1F` [Example 67, (R)-5-cyclopropyl-N-(1-(3-(difluoromethyl)-2-fluorophenyl)ethyl)-4-fluoro-2-((1-methylpiperidin-4-yl)amino)benzamide], `C[C@@H](NC(=O)c1cc(O[C@H]2CCOC2)c(F)cc1NC1CCN(C)CC1)c1cccc(C(F)F)c1F` [Example 10, N—((R)-1-(3-(difluoromethyl)-2-fluorophenyl)ethyl)-4-fluoro-2-((1-methylpiperidin-4-yl)amino)-5-(((S)-tetrahydrofuran-3-yl)oxy)benzamide] is 0.49 log units higher in pIC50: 6.66 for the first, 7.15 for the second.

`C[C@@H](NC(=O)c1cc(N2CC[C@@]3(CCOC3)C2)c(F)cc1NC1CCN(C)CC1)c1cccc(C(F)F)c1F` (single isomer, unassigned) [Example 30] and `C[C@@H](NC(=O)c1cc(N2CC[C@]3(CCOC3)C2)c(F)cc1NC1CCN(C)CC1)c1cccc(C(F)F)c1F` (single isomer, unassigned) [Example 31] are within 0.2 log units of each other in pIC50: 7.40 for the first, 7.39 for the second.

`C[C@@H](NC(=O)c1cc(N2C[C@H]3C[C@@H]2CO3)c(F)cc1NC1CCN(C)CC1)c1cccc(C(F)F)c1F` [Example 2, 5-((1R,4R)-2-oxa-5-azabicyclo[2.2.1]heptan-5-yl)-N—((R)-1-(3-(difluoromethyl)-2-fluorophenyl)ethyl)-4-fluoro-2-((1-methylpiperidin-4-yl)amino)benzamide] and `C[C@@H](NC(=O)c1cc(N2CC(F)(F)C[C@@H]2C)c(F)cc1NC1CCN(C)CC1)c1cccc(C(F)F)c1F` [Example 37, 5-((S)-4,4-difluoro-2-methylpyrrolidin-1-yl)-N-((R)-1-(3-(difluoromethyl)-2-fluorophenyl)ethyl)-4-fluoro-2-((1-methylpiperidin-4-yl)amino)benzamide] are within 0.2 log units of each other in pIC50: 7.00 for the first, 6.86 for the second.

Compared with `Cc1c([C@@H](C)NC(=O)c2cc(-c3ccncc3)c(F)cc2NC2CCN(C)CC2)cccc1C(F)(F)F` [Example 56, (R)-4-fluoro-N-(1-(2-methyl-3-(trifluoromethyl)phenyl)ethyl)-2-((1-methylpiperidin-4-yl)amino)-5-(pyridin-4-yl)benzamide], `Cc1c([C@@H](C)NC(=O)c2cc(-c3cnoc3)c(F)cc2NC2CCN(C)CC2)cccc1C(F)(F)F` [Example 61, (R)-4-fluoro-5-(isoxazol-4-yl)-N-(1-(2-methyl-3-(trifluoromethyl)phenyl)ethyl)-2-((1-methylpiperidin-4-yl)amino)benzamide] is 0.58 log units lower in pIC50: 7.46 for the first, 6.88 for the second.

First: C[C@@H](NC(=O)c1cc(N2CCOCC2)c(F)cc1NCCN(C)C)c1cccc(C(F)F)c1F [Example 48, (R)—N-(1-(3-(difluoromethyl)-2-fluorophenyl)ethyl)-2-((2-(dimethylamino)ethyl)amino)-4-fluoro-5-morpholinobenzamide]
Second: C[C@@H](CN(C)C)Nc1cc(F)c(N2CCOCC2)cc1C(=O)N[C@H](C)c1cccc(C(F)F)c1F (single isomer, unassigned) [Example 50]
The pIC50 of the first is 0.50 log units higher: 7.20 for the first, 6.70 for the second.

Going from `C[C@@H](NC(=O)c1cc(N2CCC2)c(F)cc1N[C@@H]1CN2CCC1CC2)c1cccc(C(F)F)c1F` [Example 28, 5-(azetidin-1-yl)-N—((R)-1-(3-(difluoromethyl)-2-fluorophenyl)ethyl)-4-fluoro-2-(((S)-quinuclidin-3-yl)amino)benzamide] to `C[C@@H](NC(=O)c1cc(N2CCCC2)c(F)cc1N[C@H]1CN2CCC1CC2)c1cccc(C(F)F)c1F` [Example 33, N—((R)-1-(3-(difluoromethyl)-2-fluorophenyl)ethyl)-4-fluoro-5-(pyrrolidin-1-yl)-2-(((R)-quinuclidin-3-yl)amino)benzamide], the pIC50 rises from 7.21 to 7.46 (0.25 log units).

Compared with `CC(=O)N1CC2(C1)CN(c1cc(C(=O)N[C@H](C)c3cccc(C(F)(F)F)c3C)c(NC3CCN(C)CC3)cc1F)C2` [Example 20, (R)-5-(6-acetyl-2,6-diazaspiro[3.3]heptan-2-yl)-4-fluoro-N-(1-(2-methyl-3-(trifluoromethyl)phenyl)ethyl)-2-((1-methylpiperidin-4-yl)amino)benzamide], `Cc1c([C@@H](C)NC(=O)c2cc(N3CC4(C3)CS(=O)(=O)C4)c(F)cc2NC2CCN(C)CC2)cccc1C(F)(F)F` [Example 8, (R)-5-(2,2-dioxido-2-thia-6-azaspiro[3.3]heptan-6-yl)-4-fluoro-N-(1-(2-methyl-3-(trifluoromethyl)phenyl)ethyl)-2-((1-methylpiperidin-4-yl)amino)benzamide] is 0.45 log units lower in pIC50: 7.58 for the first, 7.13 for the second.

`C[C@@H](NC(=O)c1cc(N2CCOCC2)c(F)cc1NC1(C)CN(C)C1)c1cccc(C(F)F)c1F` [Example 54, (R)—N-(1-(3-(difluoromethyl)-2-fluorophenyl)ethyl)-2-((1,3-dimethylazetidin-3-yl)amino)-4-fluoro-5-morpholinobenzamide] and `C[C@H](CN(C)C)Nc1cc(F)c(N2CCOCC2)cc1C(=O)N[C@H](C)c1cccc(C(F)F)c1F` (single isomer, unassigned) [Example 49] are within 0.2 log units of each other in pIC50: 7.13 for the first, 7.15 for the second.

Compared with `C[C@@H](NC(=O)c1cc(C(=O)N(C)C)c(F)cc1NC1CCN(C)CC1)c1cccc(C(F)F)c1F` [Example 75, (R)—N1-(1-(3-(difluoromethyl)-2-fluorophenyl)ethyl)-4-fluoro-N3,N3-dimethyl-6-((1-methylpiperidin-4-yl)amino)isophthalamide], `C[C@@H](NC(=O)c1cc(-c2nnco2)c(F)cc1NC1CCN(C)CC1)c1cccc(C(F)F)c1F` [Example 72, (R)—N-(1-(3-(difluoromethyl)-2-fluorophenyl)ethyl)-4-fluoro-2-((1-methylpiperidin-4-yl)amino)-5-(1,3,4-oxadiazol-2-yl)benzamide] is 1.33 log units higher in pIC50: 6.61 for the first, 7.94 for the second.

Compared with `C[C@@H](NC(=O)c1cc(N2CCC(F)(F)C2)c(F)cc1N[C@H]1CN2CCC1CC2)c1cccc(C(F)F)c1F` [Example 27, N—((R)-1-(3-(difluoromethyl)-2-fluorophenyl)ethyl)-5-(3,3-difluoropyrrolidin-1-yl)-4-fluoro-2-(((R)-quinuclidin-3-yl)amino)benzamide], `C[C@@H](NC(=O)c1cc(N2CCOCC2)c(Cl)cc1N[C@H]1CN2CCC1CC2)c1cccc(C(F)F)c1F` [Example 80, 4-chloro-N—((R)-1-(3-(difluoromethyl)-2-fluorophenyl)ethyl)-5-morpholino-2-(((R)-quinuclidin-3-yl)amino)benzamide] is 0.30 log units lower in pIC50: 7.65 for the first, 7.35 for the second.

First: C[C@@H](NC(=O)c1cc(N2CCOCC2)c(F)cc1NC(C)(C)CN(C)C)c1cccc(C(F)F)c1F [Example 52, (R)—N-(1-(3-(difluoromethyl)-2-fluorophenyl)ethyl)-2-((1-(dimethylamino)-2-methylpropan-2-yl)amino)-4-fluoro-5-morpholinobenzamide]
Second: C[C@@H](NC(=O)c1cc(N2CCOC(F)(F)C2)c(F)cc1NC1CCN(C)CC1)c1cccc(C(F)F)c1F [Example 40, (R)-N-(1-(3-(difluoromethyl)-2-fluorophenyl)ethyl)-5-(2,2-difluoromorpholino)-4-fluoro-2-((1-methylpiperidin-4-yl)amino)benzamide]
The pIC50 of the first is 0.47 log units lower: 7.19 for the first, 7.66 for the second. The second is the more potent here.

First: C[C@@H](NC(=O)c1cc(N2CCOCC2)c(C#N)cc1N[C@@H]1CN2CCC1CC2)c1cccc(C(F)F)c1F [Example 25, 4-cyano-N—((R)-1-(3-(difluoromethyl)-2-fluorophenyl)ethyl)-5-morpholino-2-(((S)-quinuclidin-3-yl)amino)benzamide]
Second: C[C@@H](NC(=O)c1cc(N2CCOCC2)c(F)cc1N[C@H]1CN2CCC1CC2)c1cccc(C(C)(F)F)c1F [Example 43, N—((R)-1-(3-(1,1-difluoroethyl)-2-fluorophenyl)ethyl)-4-fluoro-5-morpholino-2-(((R)-quinuclidin-3-yl)amino)benzamide]
The pIC50 of the first is 0.31 log units higher: 8.13 for the first, 7.82 for the second. The first is the more potent here.
